Reference: PMC8797470, “Disruption of the pentraxin 3/CD44 interaction as an efficient therapy for triple‐negative breast cancers” (Clinical and Translational Medicine, 2022)
Ends that are not written are not given here.

Tests used:
[1] = biological target: T1, PTX3/CD44 interaction (Homo sapiens, UniProt P16070); test: Competitive binding ELISA of HRP-conjugated PTX3 to immobilised CD44; details: biotinylated peptide 2 h, then 5 μg/ml HRP-conjugated PTX3 1 h at RT
T1 construct: purchased Sino Biological Inc. (CD44) 12211-H08H
T1 sequence (P16070 21-220 limits assumed): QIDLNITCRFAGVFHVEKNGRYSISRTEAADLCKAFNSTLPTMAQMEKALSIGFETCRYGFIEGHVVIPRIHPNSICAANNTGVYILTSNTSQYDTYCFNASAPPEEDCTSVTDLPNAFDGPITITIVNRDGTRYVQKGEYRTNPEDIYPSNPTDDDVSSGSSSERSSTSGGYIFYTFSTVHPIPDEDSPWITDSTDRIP
Description: Plate wells (9018; Corning Costar) were coated with 10 μg/ml of CD44 (12211‐H08H; Sino Biological Inc.) in PBS (pH 7.2) and then blocking for 1 h with the blocking buffer including 3% milk in PBS. For the stability binding experiments, the PTX3‐devired biotinylated peptides were pre‐incubated in serum for 1, 2, 4 or 6 h. For the binding experiments, the horseradish peroxidase (HRP)‐conjugated recombinant PTX3, PTX3/N, PTX3/C and PTX3NA or PTX3‐devired biotinylated peptides AD9, GR9, P2rdAD9 and P12rdGR9 (32310; LEADGENE) was responded in the well for 2 h. For the peptide of competition experiments, the PTX3‐devired biotinylated peptides RI37 and GI40 were diluted at the indicated concentration in PBS. After 2 h, PBS washed three times and then incubated with 5 μg/ml HRP‐conjugated PTX3 in PBS for 1 h at room temperature (RT). For the antibody competition experiments, Ab‐10 and Ab‐49 were incubated with 5 μg/ml HRP‐conjugated PTX3 in PBS for 2 h at RT. After incubation, the mixtures was responded in the well for 1 h at RT and then PBS washed three times, tetramethyl benzidine (TMB) was used to detect the bound HRP conjugate. After 15 min, the peroxidase reaction was stopped by adding 0.1 M H2SO4. Next, ELISA plate reader was used to detect the optical densities at 450 nm.

[2] = test system: RANKL, MMP2, NANOG and TWIST2 transcription in MDA-MB-231 cells; test: Real-time quantitative PCR of PTX3-induced genes; type: cell-based, human; details: MDA-MB-231 cells, with PTX3 treatment
From the text: TRIsure RNA extraction reagent (Invitrogen) extracted total RNA. SuperScript™ III Reverse Transcriptase (Invitrogen) was used to synthesis cDNA. Next, SensiFAST™ SYBR (BIOLINE) was applied to perform real‐time quantitative PCR (Q‐PCR) assay. CFX connect Real‐Time PCR System (BIO‐RAD) executed real‐time fluorescence monitoring and the melting curve analysis according to the manufacturer's recommendations. The following pairs of specific primers—human CEBPD (F): 5′‐[…]‐3′ and CEBPD (R): 5′‐[…]‐3′, human PTX3 (F): 5′‐ […]‐3′ and PTX3 (R): 5′‐ […]‐3′, human MMP2 (F): 5′‐ […]‐3′ and MMP2 (R): 5′‐ […]‐3′, human RANKL (F): 5′‐ AGAGC GCAGATGGATCCTAA‐3′ and RANKL (R): 5′‐ TTCCTTTTGCACAGC TCCTT‐3′, human TWIST2 (F): 5′‐[…]‐3′ and TWIST2 (R): 5′‐[…]‐3′, human NANOG (F): 5′‐[…]‐3′ and NANOG (R): 5′‐ […]‐3′, human GAPDH (F): 5′‐ […]‐3′ and GAPDH (R): 5′‐ […]‐3′.

[3] = test system: mCherry fluorescent-expressing MDA-MB-231 cells; test: Orthotopic xenograft of mCherry MDA-MB-231 cells in NOD-SCID mice; type: in vivo, mouse; details: 40 mg/kg peptide every day, intraperitoneal
From the text: (§1) For the animal model, MB‐Luc2 cells were mixed with human BCAFs xenografts: 1 × 10^5 MB‐Luc2 were mixed with either 1 × 10^5 BCAFs carrying a control knockdown vector (shCtl‐BCAFs), or 1 × 10^5 BCAFs carrying a CEBPD knockdown vector (shCD‐BCAFs), or 1 × 10^5 BCAFs carrying a PTX3 knockdown vector (shP‐BCAFs). The cell mixtures were inoculated into the mammary fat pads of NOD‐SCID mice. In peptide treatment experiments, NOD‐SCID mice were orthotopically inoculated with 1 × 10^6 mCherry fluorescent‐expressing MDA‐MB‐231 cells into the mammary fat pad. Similarly, 5 × 10^5 mCherry fluorescent‐expressing 4T1 cells were orthotopically inoculated into BALB/c mice in the mammary fat pad. Once tumours reached to the mean of 50 mm^3, the mice were administered 40 mg/kg of peptides RI37, GI40, P2rdAD9 or P12rdGR9 every day by intraperitoneal injection. For paclitaxel treatment, 30 mg/kg of paclitaxel was administered to the experimental mice once a week. […] The images of in vivo bioluminescence and metastasis quantification of the lung and brain were analysed by a Xenogen IVISR Spectrum Noninvasive Quantitative Molecular Imaging System. […] After that, tumour volume was mathematically determined by using the standard formula: […], where l represents the length and w represents the width of the tumour. […] After, the number of nodules on the lung surface was measured. […]

[4] = test system: mCherry fluorescent-expressing 4T1 cells; test: Orthotopic allograft of mCherry 4T1 cells in BALB/c mice; type: in vivo, mouse; details: 40 mg/kg peptide every day, intraperitoneal
From the text: as §1

Substance | binding of PTX3 and CD44 in competition with peptide [1] | PTX3-induced transcription of RANKL, MMP2, NANOG and TWIST2 [2] | tumour growth and metastasis [3] | tumour growth and metastasis [4]
RI37: peptide, PTX3 amino acids 200–236 (RPMRLESFSACIWVKATDVLNKTILFSYGTKRNPYEI; also: biotin, position not given here) | attenuated | suppressed | suppressed | suppressed
GI40: peptide, PTX3 amino acids 320–359 (GGGFDETLAFSGRLTGFNIWDSVLSNEEIRETGGAESCHI; also: biotin, position not given here) | attenuated | suppressed | suppressed | suppressed
